Assay [1] deals with HCT116-MTAP-KO (MTAP null) cells. As to the kind of experiment: Proliferation inhibition of HCT116 MTAP-KO cells in vitro (CellTiter Glo, 6 days). The format is cell-based. The conditions noted are these: read-out: Cell proliferation inhibition rate HCT116-MTAP null IC50 (nm). An excerpt:
(§1) Biological Test Example 2 Proliferation Inhibition of HCT116 and HCT116 MTAP-KO Cells In Vitro
(§2) HCT116 cell line was purchased from the Chinese Academy of Sciences Cell Bank, and the MTAP gene was knocked out by CRISPR/Cas9 technology to obtain HCT116-MTAP-KO cell line.
(§3) McCoy's 5A medium (Gibco, catalog No. 16600082), fetal bovine serum (Gibco, catalog No. 10099141C), penicillin-streptomycin double antibody (Gibco, catalog No. 15140122), pancreatic enzyme (Gibco, catalog No. 25200056), CellTiter Glo assay kit (Promega, catalog No. G7572), 384-well transparent flat-bottomed black walled cell culture plate (Corning, catalog No. 3764), ultra micro sampler (Tecan, catalog No. D300e), Multimode reader (Biotek, catalog No. SynergyHTX)
(§4) • 1. Cell culture: HCT116 and HCT116-MTAP-KO cells were cultured in McCoy'5A medium+10% fetal bovine serum+1% penicillin-streptomycin double antibody; to ensure that they were always in the logarithmic growth phase and the cell viability greater than 95%. • 2. Compound concentration gradient preparation: The compound to be tested was added to a 384-well plate using an ultra micro sampler, starting from 30 μM (HCT116 cells) or 3 μM (HCT116-MTAP-KO cells), and diluted with DMSO at 3 times for a total of 9 concentrations and set up three duplicate wells. • 3. Treatment of cells with compounds: Trypsin-digested HCT116 or HCT116-MTAP-KO cell suspension was added to the 384-well plates spotted with the compounds to be tested at 40 μL per well, i.e., 100 cells per well, and the final concentration of DMSO was 0.4%. The cell culture plate was incubated at 37° C. in a 5% CO2 incubator for 6 days. • 4. Detection: 20 μL of CellTiter Glo reagent was added to each well of the cell culture plate and incubated at room temperature for 30 minutes. A multimode reader was used to detect the luminescence signal at […]. • 5. Data analysis:
(§5) The data was fitted with GraphPad Prism 8.0 software using a four parameter inhibitor-reaction model to obtain the […] (half inhibitory concentration) of the test compounds.
(§6) The first column represents cell proliferation inhibition rate HCT116 MTAP WT IC50 (nm), and the second column represents cell proliferation inhibition rate HCT116-MTAP null IC50 (nm): […]
Background: In ATP-based viability assays light output follows the ATP content of the culture.

The next assay has as its system HCT116 MTAP WT cells. Put plainly: Proliferation inhibition of HCT116 cells in vitro (CellTiter Glo, 6 days). As to conditions: read-out: Cell proliferation inhibition rate HCT116 MTAP WT IC50 (nm). The format is cell-based.
Text: as §1, §2, §3, §4, §5, §6

Like-named read-outs stand apart in the source and are kept apart here.

For the molecule `Cc1ncccc1N(Cc1cn2cc(C(F)(F)F)ccc2n1)C(=O)c1ccc2nc(N)c3c(c2c1)COC3` [Example 99], the IC50 in assay [1] (HCT116-MTAP null, 144 h) was less than 100 nM; with HCT116 MTAP WT cells (Homo sapiens, HCT-116, 144 h) it was 1000 to 10000 nM.

As for `Cc1ncccc1N(Cc1cn2cc(C(F)(F)F)ccc2n1)C(=O)c1ccc2nc(N)c3c(c2c1)COC3C` (stereo not drawn) [Example 100], the IC50 in assay [1] (HCT116-MTAP null, 144 h) was less than 100 nM; with HCT116 MTAP WT cells (Homo sapiens, HCT-116, 144 h), 1000 to 10000 nM.

`CCn1cc(N(Cc2nc3ccc(C(F)(F)F)cn3c2F)C(=O)c2ccc3nc(N)c4c(c3c2)COC4)c(C)n1` [Example 101]: the IC50 is less than 100 nM in assay [1] (HCT116-MTAP null, 144 h) and 1000 to 10000 nM in the assay with HCT116 MTAP WT cells (Homo sapiens, HCT-116, 144 h).

For `Cc1cc2cc(C(=O)N(Cc3cn4cc(C(F)(F)F)ccc4n3)c3cn(C)nc3C)ccc2nc1N` [Example 103], the IC50 is 100 to 1000 nM in assay [1] (HCT116-MTAP null, 144 h) and 1000 to 10000 nM in the assay with HCT116 MTAP WT cells (Homo sapiens, HCT-116, 144 h).

With `Cc1nn(C)cc1N(Cc1cn2cc(C(F)(F)F)ccc2n1)C(=O)c1cc2c(cc1F)nc(N)c1cnn(C)c12` [Example 104], the IC50 in assay [1] was less than 100 nM; in the assay on HCT116 MTAP WT cells, 100 to 1000 nM.

For `Cc1nn(C)cc1N(Cc1cn2cc(C(F)(F)F)ccc2n1)C(=O)c1ccc2nc(N)c3c(cnn3C)c2c1` [Example 105], the IC50 in assay [1] (HCT116-MTAP null, 144 h) is less than 100 nM; in the assay with HCT116 MTAP WT cells (Homo sapiens, HCT-116, 144 h) it was 1000 to 10000 nM.

In the case of `Cn1nccc1N(Cc1cn2cc(C(F)(F)F)ccc2n1)C(=O)c1ccc2nc(N)c3c(c2c1)COC3` [Example 107], the IC50 in assay [1] (HCT116-MTAP null, 144 h) was less than 100 nM; in the assay with HCT116 MTAP WT cells (Homo sapiens, HCT-116, 144 h), 1000 to 10000 nM.

With `Cc1cc(NC(=O)C(=O)N(Cc2cn3cc(C(F)(F)F)ccc3n2)c2cn(C)nc2C)cnc1N` [Example 108], the IC50 in assay [1] (HCT116-MTAP null, 144 h) was less than 100 nM; with HCT116 MTAP WT cells (Homo sapiens, HCT-116, 144 h), 1000 to 10000 nM.

For the molecule `Cc1nn(C)cc1N(Cc1cn2cc(C(F)(F)F)ccc2n1)C(=O)c1ccc2nc(N)c3c(c2c1)OCC3` [Example 109], the IC50 was less than 100 nM in assay [1] (HCT116-MTAP null, 144 h) and 1000 to 10000 nM in the assay with HCT116 MTAP WT cells (Homo sapiens, HCT-116, 144 h).

For `Cn1nccc1N(Cc1cn2cc(C(F)(F)F)ccc2n1)C(=O)c1cc2c(cc1F)nc(N)c1cnn(C)c12` [Example 111], the IC50 (in assay [1]; in the assay with HCT116 MTAP WT cells) was less than 100 nM in each case.

With `Cn1nccc1N(Cc1cn2cc(C(F)(F)F)ccc2n1)C(=O)c1ccc2nc(N)c3c(c2c1)OCC3` [Example 112], the IC50 in assay [1] (HCT116-MTAP null, 144 h) is less than 100 nM; in the assay with HCT116 MTAP WT cells (Homo sapiens, HCT-116, 144 h), 100 to 1000 nM.

Turning to `Cn1cc(N(Cc2cn3cc(C(F)(F)F)ccc3n2)C(=O)c2ccc3nc(N)c4c(c3c2)OCC4)cn1` [Example 113], the IC50 in assay [1] (HCT116-MTAP null, 144 h) was in the range of 100 to 1000 nM; in the assay with HCT116 MTAP WT cells (Homo sapiens, HCT-116, 144 h) it was 1000 to 10000 nM.

As for `Cn1ncc(F)c1N(Cc1cn2cc(C(F)(F)F)ccc2n1)C(=O)c1ccc2nc(N)c3cnn(C)c3c2c1` [Example 115], the IC50 in assay [1] (HCT116-MTAP null, 144 h) was less than 100 nM; with HCT116 MTAP WT cells (Homo sapiens, HCT-116, 144 h), 100 to 1000 nM.

Turning to `CC(c1ncccn1)N(Cc1cc2ccccn2n1)C(=O)c1ccc2nc(N)c3c(c2c1)CCC3` (stereo not drawn) [Example 116], the IC50 in assay [1] (HCT116-MTAP null, 144 h) was less than 100 nM; in the assay with HCT116 MTAP WT cells (Homo sapiens, HCT-116, 144 h), 1000 to 10000 nM.

For the molecule `CCN(C(=O)c1ccc2nc(N)c3c(cnn3C)c2c1)C(C)c1cc2ccccn2n1` (stereo not drawn) [Example 117], the IC50 in assay [1] (HCT116-MTAP null, 144 h) lay within 100 to 1000 nM; with HCT116 MTAP WT cells (Homo sapiens, HCT-116, 144 h), 1000 to 10000 nM.

In the case of `CCN(Cc1cc2ccccn2n1)C(=O)c1ccc2nc(N)c3c(cnn3C)c2c1` [Example 118], the IC50 in assay [1] (HCT116-MTAP null, 144 h) lay in the range of 100 to 1000 nM; in the assay on HCT116 MTAP WT cells (Homo sapiens, HCT-116, 144 h) it was 1000 to 10000 nM.

Consider `CCN(C(=O)c1ccc2nc(N)c3c(c2c1)COC3)C(C)c1cc2ccccn2n1` (stereo not drawn) [Example 119, 4-Amino-N-ethyl-N-(1-(pyrazolo[1,5-a]pyridin-2-yl)ethyl)-1,3-dihydrofurano[3,4-c]quinolin-8-carboxamide], for which the IC50 in assay [1] (HCT116-MTAP null, 144 h) is less than 100 nM; in the assay on HCT116 MTAP WT cells (Homo sapiens, HCT-116, 144 h), 1000 to 10000 nM.

Turning to `Cc1cc2cc(C(=O)N(Cc3cc4ccccn4n3)C(C)c3ncccn3)ccc2nc1N` (stereo not drawn) [Example 120], the IC50 is less than 100 nM in assay [1] (HCT116-MTAP null, 144 h) and 1000 to 10000 nM in the assay with HCT116 MTAP WT cells (Homo sapiens, HCT-116, 144 h).

As to `CCN(Cc1cc2ccccn2n1)C(=O)c1ccc2nc(N)c3c(c2c1)COC3C` (stereo not drawn) [Example 121], the IC50 in assay [1] (HCT116-MTAP null, 144 h) was 100 to 1000 nM; with HCT116 MTAP WT cells (Homo sapiens, HCT-116, 144 h), 1000 to 10000 nM.

With `Cc1cc2cc(C(=O)N(Cc3cc4ccccn4n3)C(C)c3cccc(F)n3)ccc2nc1N` (stereo not drawn) [Example 122], the IC50 in assay [1] (HCT116-MTAP null, 144 h) was less than 100 nM; in the assay with HCT116 MTAP WT cells (Homo sapiens, HCT-116, 144 h), 1000 to 10000 nM.

Turning to `C[C@H]1COC[C@@H](c2cc3ccccn3n2)N1C(=O)c1cc2c(cc1F)nc(N)c1cnn(C)c12` [Example 123], the IC50 in assay [1] (HCT116-MTAP null, 144 h) was less than 100 nM; in the assay on HCT116 MTAP WT cells (Homo sapiens, HCT-116, 144 h) it was 100 to 1000 nM.

Source of the values: US20240376126A1, “PRMT5 INHIBITOR AND THE USE THEREOF” (CYTOSINLAB THERAPEUTICS CO., LTD., priority 2022, published 2024).
